Reference: US9238571B2, “Formulations for c-Met kinase inhibitors” (Merck Sharp & Dohme Limited, priority 2009, dated 2016)

Assays:
[1] = Solubility measurements of Compound A HCl salt in 250 mL SGF with citric acid pre-dissolved; type: physicochemical
Method: FIG. 2 describes the solubility measurements for Compound A HCl salt in 250 mL of SGF with various amounts of citric acid anhydrous pre-dissolved.
Within this formulation the amount of citric acid anhydrous available is 160.44 mg (Target fill weight for the capsule is 382.0 mg)

[2] = Clinical studies with Compound A (exposure among patients); type: in vivo
Description: The formulations of the instant invention have advantages over other formulations of c-Met kinase inhibitors. […] Based upon the sharp dependence of solubility on pH, it can be postulated that the performance of these formulations can vary based on variability in gastric pH. […] Exposure can vary due to many factors, including whether the inhibitor is taken with or without food. The formulations of the instant invention give in vivo exposures to the drug that are less sensitive to changes in gastric pH than other formulations.

Cn1cc(-c2cnc3ccc4ccc(CS(=O)(=O)NCc5ccccn5)cc4c(=O)c3c2)cn1 [Compound A, 1-[3-(1-Methyl-1H-pyrazol-4-yl)-5-oxo-5H-benzo[4,5]cyclohepta[1,2-b]pyridin-7-yl]-N-(pyridin-2-ylmethyl)methanesulfonamide]
maximum solubility ([1]; 300 mg of citric acid fully dissolved in 250 mL of SGF pH 3.0, Compound A HCl salt (FIG. 2)): approximately 15 mg
% dissolved equated from maximum solubility ([1]; for a 110 mg potency capsule, 300 mg citric acid pre-dissolved in 250 mL SGF pH 3.0): 14%
variability in Compound A exposure among patients [2]: high variability
exposure in patients concomitantly taking antacids ([2]; some patients with high gastric pH (antacids)): lower exposures
